Columns and labels:
healthy adult subjects = assay: Part 3 RelBA with FE: safety; assay type: in vivo, human; settings: 10 mg
Description: Part 3 compared the relative bioavailability (RelBA) of Compound A between a tablet formulation and the powder-in-capsule formulation. In addition, the food effect (FE) on the bioavailability of Compound A was assessed following administration of tablet formulation. Dose levels were as follows:
The Part 3 (RelBA with FE) evaluation was conducted using a 2-sequence, 3-period crossover study design in approximately 12 subjects. Subjects in Part 3 were randomized 1:1 to receive 1 of 2 sequences consisting of 3 periods with up to 72 hours of washout between treatments. The first 2 periods were dosed under fasted state and the third period was dosed in a fed state (high-fat meal).
In treatment period(s) under the fed condition, following overnight fast, all subjects were given a high-fat breakfast. Within 30 minutes of starting the consumption of the breakfast, the assigned treatment was administered. […] There was a 72-hour washout period between the treatments.

[1] = test system: subjects with narcolepsy type-1 (NT1); assay: Part 4 NT1: Maintenance of Wakefulness Test (MWT) sleep latency; assay type: in vivo, human; settings: for change from baseline in average sleep latency on MWT vs placebo: 1, 3 and 8 mg
Description: On Day −1, approximately 25 hours prior to study drug administration (on Day 1), baseline assessments for Maintenance of Wakefulness Test (MWT) began and were collected in a series of trials over approximately 10 hours.
At specified time points (Part 4), MWT assessments were performed and took up to 40 minutes to complete. The MWT is the standard objective measure of an individual's ability to remain awake during the daytime in a darkened, quiet environment and is commonly used to assess response to treatment. The MWT assessments were performed according to American Academy of Sleep Medicine (AASM) guidance. During the MWT trials, subjects were seated in a bed or reclining chair in a darkened room with their back and head supported such that their neck is not uncomfortably flexed or extended. Subjects are instructed to sit still and remain awake for as long as possible during each 40-minute trial. If the subject fell asleep during a trial, they were awakened, and the trial was terminated. […] Upon completion of the trial, the subject returned to a normal environment/ambiance and remained awake (and were awakened if they fall asleep) until the next trial.
Once Part 4 was completed, the EEG data recorded during the MWT, as well as the technician notes, were transferred to the EEG vendor for further analysis. Technician notes were also maintained for transfer to Sponsor at the end of the study. A precise assessment of sleep latency was conducted by an experienced sleep scorer from the EEG vendor, and spectral analysis was performed on the EEG data recorded during MWT to assess absolute and relative powers in standard frequency bands (i.e., qEEG). All raw data and analysis results were transferred to the Sponsor.
For the changes from baseline in average sleep latency across the first 4 sessions of the MWT, descriptive statistics were provided by dose level. Mixed model with repeated measure (MMRM) for the 4-period crossover design were conducted with the change from baseline as a dependent variable, and the dose level and the period as fixed factors. The differences in the least square means between each Compound A dose level and the placebo (each Compound A dose level—the placebo), and the 2-sided CIs were provided.
Evaluation of Compound A effects on average sleep latency across 4 timepoints of MWT (2-, 4-, 6-, and 8-hours post-dose) from 4 patients with NT1 has been conducted at pre-dose baseline series on Day −1, and each of the crossovers (Days 1, 3, 5 and 7), testing placebo, and active dose levels of 1, 3, and 8 mg in the patients with NT1 compared to placebo.
Evaluation of Compound A effects on average sleep latency across 4 timepoints of MWT (2-, 4-, 6-, and 8-hours post-dose) from 10 patients with NT1 (including the 4 patients described above in 4.19.1) has been conducted at pre-dose baseline series on Day −1, and each of the crossovers (Days 1, 3, 5 and 7), testing placebo, and active dose levels of 1, 3, and 8 mg in the patients with NT1 compared to placebo.

[2] = 1 mg, NT1, N = 9 (10-patient analysis, Table 13a)
[3] = 3 mg, NT1, N = 9 (10-patient analysis, Table 13a)
[4] = 8 mg, NT1, N = 10 (10-patient analysis, Table 13a)

## CS(=O)(=O)N[C@H]1CCCN2C(=O)COc3ccccc3C3CCC(CC3)OCC12 (stereo partly drawn) [Compound A, N-[(4S,4aR,7α,10α)-1,2,3,4,4a,5,7,8,9,10,16,17-dodecahydro-17-oxo-7,10-ethanopyrido[1,2-d][1,7,4]benzodioxaazacyclotridecin-4-yl]methanesulfonamide]
Healthy adult subjects; fed and fasted conditions
  Tolerability: well tolerated
Healthy adult subjects; three administrations
  subjects reporting at least one AE (of 12): 11
[1]; 1 mg, 4 patients with NT1
  average sleep latency improvement on MWT: 19.5 min
[1]; 1 mg, NT1, N = 4
  Change from Day −1 in Average Sleep Latency on the MWT, LSM difference vs placebo: 19.47 min
[1]; 1 mg, NT1, N = 4, average of 2, 4, 6, 8 h post-dose
  Change from Day −1 in Average Sleep Latency on the MWT, LSM: 18.41 min
[1]; [2]
  Change from Day −1 in Average Sleep Latency on the MWT, LSM: 16.95 min
  Change from Day −1 in Average Sleep Latency on the MWT, LSM difference vs placebo: 18.38 min
[1]; 3 mg, 4 patients with NT1
  MWT by-timepoint effect: maximum effect over 2, 4 and 6-hour timepoints, and meaningful effect at 8 hours
[1]; 3 mg, NT1, N = 4
  Change from Day −1 in Average Sleep Latency on the MWT, LSM difference vs placebo: 31.16 min
[1]; 3 mg, NT1, N = 4, average of 2, 4, 6, 8 h post-dose
  Change from Day −1 in Average Sleep Latency on the MWT, LSM: 30.09 min
[1]; [3]
  Change from Day −1 in Average Sleep Latency on the MWT, LSM: 21.15 min
  Change from Day −1 in Average Sleep Latency on the MWT, LSM difference vs placebo: 22.57 min
[1]; 8 mg, 4 patients with NT1, including 10 hours post-dose
  MWT effect at every timepoint (maximum score 40 minutes): 40 min
[1]; 8 mg, NT1, N = 4
  Change from Day −1 in Average Sleep Latency on the MWT, LSM difference vs placebo: 38.13 min
[1]; 8 mg, NT1, N = 4, average of 2, 4, 6, 8 h post-dose
  Change from Day −1 in Average Sleep Latency on the MWT, LSM: 37.06 min
[1]; [4]
  Change from Day −1 in Average Sleep Latency on the MWT, LSM: 32.55 min
  Change from Day −1 in Average Sleep Latency on the MWT, LSM difference vs placebo: 33.97 min
[1]; 4 patients with NT1, 2-8 hours post-dose
  change from baseline in average sleep latency on MWT vs placebo: statistically significant improvement in sleep latency
[1]; 10 patients with NT1, 2-8 hours post-dose
  change from baseline in average sleep latency on MWT vs placebo: statistically significant improvement in sleep latency

— patent US20250186405A1, “Compound For Use In Treating Narcolepsy” (Alkermes, Inc., priority 2023, published 2025)
